# From US20250235462A1, “NOVEL CAPSID ASSEMBLY INHIBITORS” (AM SCIENCES INC, priority 2021, published 2025)
# Read-outs that look alike come from different tables or passages of the source.
# Tests used:
# [1] = Cell viability assay (EZ-Cytox) in HepAD38 cells; assay type: cell-based; conditions: human, 65 hours of treatment; for CC50 at 65 h: read-out: Cytotoxicity CC50; for viability at 65 h, 100 µM: read-out: Cytotoxicity % Livability (@100 μM)
# Procedure: (§1) HepAD38 cells were cultured for 2 days in Dulbecco's Modified Eagle's medium (Welgene, LM001-05) supplemented with 10% FBS without tetracycline. The cells were seeded in 48-well culture plates (1×10^5 cells/well) and treated with each compound at five concentrations (0 μM (0.8% DMSO as a control), 33 μM, 50 μM, 66 μM, and 100 μM). After 65 hours of treatment, viability was measured using EZ-Cytox cell viability assay kit (Daeil Lab Service) according to the manufacturer's instructions. The absorbance was measured at 450 nm using a spectrophotometer (Spark, Tecan). Here, NVR-3-778 (denoted as NVR) was used as a positive control.
# HepAD38 cells = test: Cell viability assay (EZ-Cytox) in HepAD38 cells; assay type: cell-based; conditions: 65 hours of treatment
# Procedure: as §1
# [2] = target: Protein (capsid assembly) (Hepatitis B virus genotype D subtype ayw, UniProt P03146); test: Protein inhibition (capsid assembly inhibition), Table 1; assay type: biochemical; conditions: for inhibition at 30 µM: read-out: Protein % inhibition rate (@30 μM)
# Protein (capsid assembly), sequence (P03146 whole entry): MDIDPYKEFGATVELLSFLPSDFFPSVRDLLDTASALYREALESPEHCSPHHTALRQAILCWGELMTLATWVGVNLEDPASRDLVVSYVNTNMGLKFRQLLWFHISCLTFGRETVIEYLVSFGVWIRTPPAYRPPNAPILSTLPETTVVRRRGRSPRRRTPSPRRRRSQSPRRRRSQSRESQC
# intracellular HBV DNA = test: Real-time PCR for intracellular HBV DNA in HepAD38 cells; assay type: cell-based, hepatitis B virus (HBV); conditions: treated for 65 hours, intracellular HBV DNA by real-time PCR
# Procedure: HepAD38 cells were cultured in DMEM medium (Welgene) supplemented with 200 unit/mL penicillin, 200 μg/mL streptomycin, and 10% FBS. During maintenance and passage, the cells were cultured together with 0.4 μg/mL tetracycline. Two days before the treatment with compounds for inducing HBV replication was started, the medium was replaced with a tetracycline-free complete growth medium. […]
# HepAD38 cells were treated with a compound for 65 hours and then recovered, and intracellular HBV DNA was extracted therefrom according to the protocol in the DNeasy Blood & Tissue Kit (Qiagen). The primers and probes used to quantify HBV DNA were 5′-[…]-3′, 5′-[…]-3′, and 5′-/56-FAM/TGT CCT GGT/ZEN/[…]/3IABKFQ/-3′. The HBV DNA was amplified by real-time PCR assay using LightCycler 480 (Roche) (J. Virol., 2018, 92(16):e00339-18). All of the processes were confirmed in duplicate.
# [3] = NVR value of the same run in brackets, read-out: Protein EC50
# [4] = Hepatitis B virus, HePAD38, 65 h
Compound,CC50 at 65 h [1],"viability at 65 h, 100 µM [1]",Cytotoxicity % Livability (@100 μM) (HepAD38 cells; @100 μM),inhibition at 30 µM ([2]; @30 μM),"EC50 [2, 3]",IC50 (intracellular HBV DNA; [4]),CC50 (HepAD38 cells; read-out: Cytotoxicity CC50),Protein % inhibition rate (@30 μM) ([2]; @30 μM),IC50 (intracellular HBV DNA),EC50 [2]
"COc1ccc(N(Cc2nnc3n2CCOCC3)C(=O)Nc2ccc(F)c(Cl)c2)cn1 [Example 40, 3-(3-Chloro-4-fluorophenyl)-1-(6-methoxypyridin-3-yl)-1-((5,6,8,9-tetrahydro-[1,2,4]triazolo[4,3-d][1,4]oxazepin-3-yl)methyl)urea]",> 100 µM,88.6%,100.3%,82.8%,1500 nM,84 nM,–,–,–,–
"O=C(Nc1ccc(F)c(Cl)c1)N(Cc1nnc2n1CCOC2)c1ccc2c(c1)OCO2 [Example 4, 1-(Benzo[d][1,3]dioxol-5-yl)-3-(3-chloro-4-fluorophenyl)-1-((6,8-dihydro-5H-[1,2,4]triazolo[3,4-c][1,4]oxazin-3-yl)methyl)urea]",–,–,–,–,6800 nM,–,> 100 µM,84%,250 nM,–
"O=C(Nc1ccc(F)c(Cl)c1)N(Cc1nnc2n1CCCCC2)c1ccon1 [Example 36, 3-(3-Chloro-4-fluorophenyl)-1-(isoxazol-3-yl)-1-((6,7,8,9-tetrahydro-5H-[1,2,4]triazolo[4,3-a]azepin-3-yl)methyl)urea]",> 100 µM,90.4%,–,77.6%,1500 nM,400 nM,–,–,–,–
"COc1ccc(N(C(=O)Nc2ccc(F)c(Cl)c2)C(C)c2nnc3n2CCCCC3)cc1 (stereo not shown) [Example 23, 3-(3-Chloro-4-fluorophenyl)-1-(4-methoxyphenyl)-1-(1-(6,7,8,9-tetrahydro-5H-[1,2,4]triazolo[4,3-a]azepin-3-yl)ethyl)urea]",> 100 µM,95.1%,–,47%,3100 nM,320 nM,–,–,–,–
"O=C(Nc1ccc(F)c(Cl)c1)N(Cc1nnc2n1CCCCC2)c1ccc(F)c(F)c1 [Example 22, 3-(3-Chloro-4-fluorophenyl)-1-(3,4-difluorophenyl)-1-((6,7,8,9-tetrahydro-5H-[1,2,4]triazolo[4,3-a]azepin-3-yl)methyl)urea]",> 100 µM,92.9%,–,43%,2600 nM,400 nM,–,–,–,–
"O=C(Nc1cccc(Cl)c1)N(Cc1nnc2n1CCCC2)c1ccc2c(c1)OCO2 [Example 41, 1-(Benzo[d][1,3]dioxol-5-yl)-3-(3-chlorophenyl)-1-((5,6,7,8-tetrahydro-[1,2,4]triazolo[4,3-a]pyridin-3-yl)methyl)urea]",> 100 µM,97.1%,–,59%,2900 nM,230 nM,–,–,–,–
"O=C(Nc1ccc(F)c(Cl)c1)N(Cc1nnc2n1CCOCC2)c1ccc2c(c1)OCO2 [Example 7, 1-(Benzo[d][1,3]dioxol-5-yl)-3-(3-chloro-4-fluorophenyl)-1-((5,6,8,9-tetrahydro-[1,2,4]triazolo[4,3-d][1,4]oxazepin-3-yl)methyl)urea]",> 100 µM,96.4%,–,80%,1000 nM,30 nM,–,–,–,–
"Cc1cccc(NC(=O)N(Cc2nnc3n2CCCCC3)c2ccc3c(c2)OCO3)c1 [Example 1, 1-(Benzo[d][1,3]dioxol-5-yl)-1-((6,7,8,9-tetrahydro-5H-[1,2,4]triazolo[4,3-a]azepin-3-yl)methyl)-3-m-tolylurea]",> 100 µM,95%,–,72%,–,20 nM,–,–,–,1300 nM
